Measurements reported in publication PMC8287923, “A small-molecule chemical interface for molecular programs” (Nucleic Acids Research, 2021).

What was measured:
Assay type in all cases: biochemical
TrpR = TrpR (Escherichia coli, UniProt P0A881); test: purified TrpR with operator DNA template (psTTrpR); PEN-DNA fluorescent switch dose response, Hill fit
[1] = molecular target: T1, Tryptophan synthase subunit B (TrpB), EcB (Escherichia coli, UniProt P0A879, M149T/N171D); test: HPLC of overnight enzymatic conversion of indole and L-serine to L-trp
T1 construct: purified standalone TrpB variant (EcB)
T1 sequence (P0A879 2-397 M149T/N171D): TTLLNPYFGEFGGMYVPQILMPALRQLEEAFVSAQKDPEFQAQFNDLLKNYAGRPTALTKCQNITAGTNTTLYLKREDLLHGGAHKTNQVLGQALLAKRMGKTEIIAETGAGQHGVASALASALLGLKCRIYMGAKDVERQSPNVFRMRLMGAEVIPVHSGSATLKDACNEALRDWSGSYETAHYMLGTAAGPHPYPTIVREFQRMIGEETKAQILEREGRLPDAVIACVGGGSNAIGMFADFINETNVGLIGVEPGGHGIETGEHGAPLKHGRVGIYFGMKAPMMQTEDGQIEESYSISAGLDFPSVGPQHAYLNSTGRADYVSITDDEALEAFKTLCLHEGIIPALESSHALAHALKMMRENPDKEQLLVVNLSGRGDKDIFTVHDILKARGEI

LacI = molecular target: T2, LacI (Escherichia coli, UniProt P03023); test: purified LacI with O1 operator DNA template (psTLacI); PEN-DNA fluorescent switch dose response ([…])
T2 construct: purified LacI with C-terminal His-tag (dimer)

Structure (SMILES): N[C@@H](Cc1c[nH]c2ccccc12)C(=O)O [L-trp]
- Kd (TrpR): 24 µM

Structure (SMILES): N[C@@H](CO)C(=O)O [L-serine]
- HPLC of overnight enzymatic conversion of indole and L-serine to L-trp [1]: Enzymatic activity of EcB L-trp synthesis was confirmed through HPLC evaluation.

Structure (SMILES): c1ccc2[nH]ccc2c1 [indole]
- HPLC of overnight enzymatic conversion of indole and L-serine to L-trp [1]: Enzymatic activity of EcB L-trp synthesis was confirmed through HPLC evaluation.

Structure (SMILES): CC(C)S[C@@H]1O[C@H](CO)[C@H](O)[C@H](O)[C@H]1O [IPTG, isopropyl β-d-1-thiogalactopyranoside]
- Kd (LacI): ~100 µM
